This note sets out measurements from patent publication US10906929B2, “Phosphoramidate nucleoside derivatives as anticancer agents” (NuCana plc, priority 2016, dated 2021).

Each structure is given as a SMILES string.

One assay relates to K562. In words: In vitro cytotoxicity, MTS assay. Format: cell-based. To be noted: Homo sapiens, 72 h, read-out: Inhibitory concentration (IC50) K562. The protocol: (§1) Cladribine phosphoramidate derivatives were evaluated against six leukaemic cell lines (KG1, U937, K562, NB4R2, NB4 and HL-60) in vitro. Inhibitory concentration (IC50) at which 50% of the cells were no longer viable (calculated using MTS assay) was determined. Cells were treated with Cladribine and its 3′-phosphoramidate derivatives at concentrations between 100 μM and 0.02 μM by serial dilutions and incubated for 72 h at 37° C., 5% CO2 in a final volume of 90 μL. Twenty microliters of MTS reagent (Promega UK Ltd, Southampton, Hants) was added to the tumour cell cultures and reaction incubated for a further 4 h at 37° C., 5% CO2. The absorbance of the reaction after this time was read by spectrophotometry at 490 nm and the percentage of viable cells calculated relative to untreated control cells in the same assay.
For orientation: Tetrazolium dyes change colour on reduction, which living cells bring about.

The next assay has as its system KG1. Nature of the assay: In vitro cytotoxicity, MTS assay. Format: cell-based. Particulars: Homo sapiens, KG-1, 72 h, read-out: Inhibitory concentration (IC50) KG1. The protocol: as §1
A further assay concerns HL-60. Nature of the assay: In vitro cytotoxicity, MTS assay. Format: cell-based. To be noted: Homo sapiens, 72 h, read-out: Inhibitory concentration (IC50) HL-60. The protocol:
as §1

The subject of a further assay is NB4. In words: In vitro cytotoxicity, MTS assay. Format: cell-based. Particulars: Homo sapiens, NB-4, 72 h, read-out: Inhibitory concentration (IC50) NB4. The protocol:
as §1

The next assay deals with U937. Nature of the assay: In vitro cytotoxicity, MTS assay. To be noted: Homo sapiens, U-937, 72 h, read-out: Inhibitory concentration (IC50) U937. Format: cell-based. The method, then: as §1
The subject of another assay is NB4R2. Nature of the assay: In vitro cytotoxicity, MTS assay. Format: cell-based. Particulars: 72 h, read-out: Inhibitory concentration (IC50) NB4R2. The method, then: as §1
The test system of assay [1] is MCF-7 Mammary epithelial adenocarcinoma. Nature of the assay: In vitro viability assay, CellTiterGlo. Format: cell-based, human. To be noted: for EC50: Homo sapiens, MCF7, 72 h, read-out: EC50 (μM) Ab; for Top Inhibition (%): MCF-7, CellTiterGlo, 72 h. The protocol:
(§2) In vitro viability assay was performed to assess the effects of compounds on cell viability in selected cell lines over 72 h using the CellTiterGlo (CTG, Promega-G7573) assay. The tests were performed in duplicates with treatment of compounds at 9 points, 3.16 folds titration in 96 well plates over ˜72 h. The compound starting concentrations were […]. Cell viability assay using CellTiterGlo in 96-well plate were performed. Compounds were dissolved to 40 mM with thawed 100% DMSO. Compounds were serially diluted at 3.16-fold in thawed DMSO, and warmed to 37° C. before being dissolved in media (2 μl+200 μl). After compounds were dissolved in media, media containing compounds were warmed to 37° C. in incubator and then compounds in media were added to cell plates (50 μl+50 μl) in duplicates. The compounds' final concentrations were from 198 μM to 19.9 nM. Solubility of all compounds was checked and recorded again, then the plates were transferred to CO2 tissue culture incubator immediately and incubated for 3 days. DMSO final concentration is 0.5%.
For orientation: Cellular ATP, detected with luciferase, serves as a proxy for viable cell number.

For assay [2], the system named is Z-138 Mantle cell lymphoma. In words: In vitro viability assay, CellTiterGlo. To be noted: for EC50: Homo sapiens, Z-138, 72 h, read-out: EC50 (μM) Ab; for Top Inhibition (%): Z-138, CellTiterGlo, 72 h. Format: cell-based. The protocol: as §2
In assay [3] the test system is KG-1 Acute myelogenous leukaemia. In words: In vitro viability assay, CellTiterGlo. Type of assay: cell-based. To be noted: for EC50: Homo sapiens, KG-1, 72 h, read-out: EC50 (μM) Ab; for Top Inhibition (%): KG-1, CellTiterGlo, 72 h. The protocol: as §2
Assay [4] concerns HEL92.1.7 Erythroleukaemia. Nature of the assay: In vitro viability assay, CellTiterGlo. Type of assay: cell-based. Particulars: for Top Inhibition (%): HEL92.1.7, CellTiterGlo, 72 h; for EC50: Homo sapiens, HEL 92.1.7, 72 h, read-out: EC50 (μM) Ab. The method, then:
as §2

The test system of assay [5] is HL-60 Promyelocytic leukaemia. Nature of the assay: In vitro viability assay, CellTiterGlo. Format: cell-based. Particulars: for Top Inhibition (%): HL-60, CellTiterGlo, 72 h; for EC50: Homo sapiens, HL-60, 72 h, read-out: EC50 (μM) Ab. The protocol: as §2
Assay [6] concerns RL Non-Hodgkin's lymphoma. Nature of the assay: In vitro viability assay, CellTiterGlo. To be noted: 72 h; for Top Inhibition (%): CellTiterGlo; for EC50: Homo sapiens, read-out: EC50 (μM) Ab. Type of assay: cell-based. The method, then: as §2

For `CCOC(=O)[C@H](C)NP(=O)(Oc1ccccc1)OC1C[C@H](n2cnc3c(N)nc(Cl)nc32)O[C@@H]1CO` (stereo partly drawn) [Compound 1, 2-Chloro-2 ‘-deoxyadenosine-3’-[phenyl-(ethoxy-L-alaninyl)]-phosphate], the IC50 is greater than 10000 nM in the assay on K562; 1760 nM in the assay on KG1; 2680 nM in the assay with HL-60; 740 nM in the assay on NB4; 3060 nM in the assay on U937; 2520 nM in the assay on NB4R2.

Turning to `C[C@H](NP(=O)(Oc1ccccc1)OC1C[C@H](n2cnc3c(N)nc(Cl)nc32)O[C@@H]1CO)C(=O)OC(C)(C)C` (stereo partly drawn) [Compound 2, 2-Chloro-2 ‘-deoxyadenosine-3’-[phenyl-(tert-butoxy-L-alaninyl)]-phosphate], the IC50 in the assay with K562 is greater than 10000 nM; with KG1 it was 2000 nM; in the assay with HL-60 it was greater than 10000 nM; in the assay on NB4, greater than 10000 nM; in the assay on U937 it was 6000 nM; with NB4R2, greater than 10000 nM.

Turning to `C[C@@H](NP(=O)(Oc1ccccc1)OC1C[C@H](n2cnc3c(N)nc(Cl)nc32)O[C@@H]1CO)C(=O)OCc1ccccc1` (stereo partly drawn) [Compound 3, 2-Chloro-2 ‘-deoxyadenosine-3’-[phenyl-(benzoxy-D-alaninyl)]-phosphate], the IC50 in the assay on K562 is greater than 10000 nM; in the assay on KG1, greater than 10000 nM; with HL-60, greater than 10000 nM; in the assay on NB4, 7820 nM; in the assay on U937, 7520 nM; in the assay on NB4R2 it was greater than 10000 nM.

As to `Nc1nc(Cl)nc2c1ncn2[C@H]1CC(OP(=O)(NCC(=O)OCc2ccccc2)Oc2ccccc2)[C@@H](CO)O1` (stereo partly shown) [Compound 4, 2-Chloro-2 ‘-deoxyadenosine-3’-[phenyl-(benzoxy-glycinyl)]-phosphate], the IC50 in the assay on K562 is greater than 10000 nM; in the assay on KG1, greater than 10000 nM; in the assay with HL-60, greater than 10000 nM; with NB4 it was 8040 nM; in the assay with U937, greater than 10000 nM; with NB4R2 it was 5560 nM.

For `CC(C)C[C@H](NP(=O)(Oc1ccccc1)OC1C[C@H](n2cnc3c(N)nc(Cl)nc32)O[C@@H]1CO)C(=O)OCc1ccccc1` (stereo partly drawn) [Compound 5, 2-Chloro-2 ‘-deoxyadenosine-3’-[phenyl-(benzoxy-L-leucinyl)]-phosphate], the IC50 in the assay with K562 was greater than 10000 nM; in the assay with KG1 it was 5040 nM; with HL-60, 4450 nM; with NB4, 2560 nM; in the assay with U937, greater than 10000 nM; in the assay on NB4R2, 1570 nM.

As a reminder, the EC50 is the concentration at which the effect is half-maximal. For `CCCCCOC(=O)[C@H](CC(C)C)NP(=O)(Oc1cccc2ccccc12)OC1C[C@H](n2cnc3c(N)nc(Cl)nc32)O[C@@H]1CO` (stereo partly drawn) [Compound 7, 2-Chloro-2′-deoxyadenosine-3′-[1-naphthyl-(pentoxy-L-leucinyl)] phosphate], the EC50 in assay [1] amounted to 5.45 µM; in assay [2], 1.07 µM; in [3], 1.5 µM; in assay [4], 0.07 µM; in assay [5], 0.27 µM; in assay [6], 0.5 µM. In addition, the “Top Inhibition (%)” value was determined as 103% in assay [1]; 101% in assay [2]; 98.8% in assay [3]; 98.6% in [4]; 98% in assay [5]; 100% in assay [6].

For `C[C@H](NP(=O)(Oc1cccc2ccccc12)OC1C[C@H](n2cnc3c(N)nc(Cl)nc32)O[C@@H]1CO)C(=O)OC1CCCCC1` (stereo partly drawn) [Compound 8, 2-Chloro-2 ‘-deoxyadenosine-3’-[1-naphthyl-(cyclohexoxy-L-alaninyl)] phosphate], the EC50 was 7.97 µM in [1]; 3.5 µM in assay [2]; 2.75 µM in assay [3]; 0.18 µM in assay [4]; 0.46 µM in [5]; 0.85 µM in assay [6]. The “Top Inhibition (%)” value in assay [1] is 101%; in assay [2] it was 100%; in [3] it was 98.4%; in assay [4] it was 98.3%; in assay [5] it was 96%; in assay [6] it was 98.1%.

For the compound `CCOC(=O)C(C)(C)NP(=O)(Oc1ccccc1)OC1C[C@H](n2cnc3c(N)nc(Cl)nc32)O[C@@H]1CO` (stereo partly shown) [Compound 11, 2-Chloro-2 ‘-deoxyadenosine-3’-[phenyl-(ethoxy-2,2-dimethylglycinyl)]-phosphate], the figures for the IC50 with HL-60 and in the assay with NB4 were 300 nM and greater than 10000 nM, respectively.

With `Nc1nc(Cl)nc2c1ncn2[C@H]1CC(OP(=O)(N[C@@H](Cc2ccccc2)C(=O)OCc2ccccc2)Oc2ccccc2)[C@@H](CO)O1` (stereo partly drawn) [Compound 12, 2-Chloro-2 ‘-deoxyadenosine-3’-[phenyl-(benzoxy-L-phenylalaninyl)] phosphate], the IC50 was 10000 nM with K562; 4000 nM in the assay with KG1; 2000 nM with HL-60; 1000 nM in the assay with NB4; 2000 nM in the assay with U937; 2000 nM with NB4R2.

On to `Nc1nc(Cl)nc2c1ncn2[C@H]1CC(OP(=O)(N[C@@H](Cc2ccccc2)C(=O)OCc2ccccc2)Oc2cccc3ccccc23)[C@@H](CO)O1` (stereo partly drawn) [Compound 13, 2-Chloro-2′-deoxyadenosine-3′-[1-naphthyl(benzoxy-L-phenylaninyl)] phosphate], for which the IC50 with K562 stood at 7000 nM; in the assay with KG1 it was 1000 nM; in the assay with HL-60, 1000 nM; in the assay on NB4, 300 nM; with U937, 1000 nM; in the assay on NB4R2, 800 nM.

Turning to `CC(C)[C@H](NP(=O)(Oc1ccccc1)OC1C[C@H](n2cnc3c(N)nc(Cl)nc32)O[C@@H]1CO)C(=O)OCc1ccccc1` (stereo partly drawn) [Compound 14, 2-Chloro-2′-deoxyadenosine-3′-[phenyl-(benzoxy-L-valinyl)] phosphate], the IC50 is greater than 10000 nM in the assay with K562; 2000 nM in the assay with KG1; 3000 nM in the assay with HL-60; 800 nM in the assay with NB4; 400 nM in the assay with U937; 2000 nM in the assay with NB4R2.

With `CC(C)OC(=O)[C@H](C)NP(=O)(Oc1ccccc1)OC1C[C@H](n2cnc3c(N)nc(Cl)nc32)O[C@@H]1CO` (stereo partly drawn) [Compound 15, 2-Chloro-2′-deoxyadenosine-3′-[phenylaso-propoxy-L-alaninyl)] phosphate], the IC50 was greater than 10000 nM with K562; 5000 nM in the assay on KG1; 2000 nM in the assay on HL-60; 6000 nM in the assay on NB4; 400 nM in the assay with U937; 9000 nM with NB4R2.

With `CCC(C)OC(=O)[C@H](C)NP(=O)(Oc1ccccc1)OC1C[C@H](n2cnc3c(N)nc(Cl)nc32)O[C@@H]1CO` (stereo partly drawn) [Compound 16, 2-Chloro-2′-deoxyadenosine-3′-[phenyl-(2-butoxy-L-alaninyl)] phosphate], the IC50 with K562 is greater than 10000 nM; in the assay with KG1, 7000 nM; in the assay on HL-60, 8000 nM; in the assay on NB4, 9000 nM; in the assay with U937 it was 2000 nM; in the assay with NB4R2, greater than 10000 nM.

Take `C[C@H](NP(=O)(Oc1ccccc1)OC1C[C@H](n2cnc3c(N)nc(Cl)nc32)O[C@@H]1CO)C(=O)O[C@@H](C)c1ccccc1` (stereo partly shown) [Compound 17]: the IC50 in the assay on HL-60 stood at 3200 nM; with NB4 it was 5500 nM.
